Measured values reported in patent US20260183432A1, “IMAGING AGENTS FOR DETECTING CD206+ MACROPHAGES” (THE GENERAL HOSPITAL CORPORATION, priority 2022, published 2026).
“Also recorded” adds a separate entry of the source. Blank lines part the entries; values can stand above or below the compound they belong to.

What was measured:
CD206+ macrophages = experiment: MR imaging in mouse model of cutaneous wound healing; type: in vivo; conditions: for contrast-to-noise ratio (CNR) time course: wildtype mice, day 7 after wound induction
Description: Eight-to nine-week-old C57BL/6J female mice were used for MRI of wound healing and glioma (Jackson Laboratory, ME). The generation of wound healing and glioma is described in Examples 14 and 15, respectively. The mice with subcutaneous wounds were imaged on days 1, 4, and 7 longitudinally or on day 7. Mice with glioma were imaged on the third week. All the mice were imaged pre- and at 0, 15, 30, 45 and 60 min after 0.3 mmol/kg of Mann2-DTPA-Gd or MannGdFish was administered intravenously via a tail vein using serial T1 rapid acquisition with relaxation enhancement (RARE) sequence (TR: 935.77 ms, TE: 13.59 ms, averages: 12, rare factor: 4, 256×256×48 matrix size, 0.156×0.156×1 mm^3 voxel size) with chemical fat suppression using a Hermitian pulse shape with an 8.253 ms pulse and 701.19 Hz bandwidth 3.5 ppm down from the water peak and respiratory gating on a 4.7 T small animal MR scanner (Bruker, Cambridge, MA) with a 3 cm quadrature volume coil (Rapid MR International, Germany). Regions of interest (ROIs) were drawn and the contrast-to-noise ratios (CNRs, CNRpre-contrast subtracted) were calculated by a radiologist with over 20 years of experience blinded to the identity of the imaging agent used and the strain of the mice (n=3 per group).
Wound healing procedure. Seven-to ten-week-old C57BL/6J female mice (The Jackson Laboratories, ME) and mannose-receptor deficient mice were used in this study. A circular outline on the back of a mouse was made with a 4 mm biopsy punch (Kai Medical, Japan) under anesthesia using isoflurane. Then a full-thickness excisional wound was generated that extended through the subcutaneous tissue. A silicone splint was glued over the wound, anchored with 6-0 nylon sutures, and covered with a transparent occlusive dressing (OpSite). Xylazine/norepinephrine (100 μL) were intraperitoneally injected twice a day for two days and the mice were monitored daily.

[1] = tested on: M1 and M2 macrophages differentiated from Raw 264.7 cells; experiment: fluorescence imaging of M1- and M2-differentiated macrophages; type: cell-based; conditions: incubated at 37° C.
Description: M1- and M2-differentiated macrophages were incubated with 1/1000 dilution of MR2-cy5 stock solution (10 mM in DMSO) for 1 h at 37° C. and counter-stained with DAPI (4′,6-diamidino-2-phenylindole, Invitrogen). The cells were washed with PBS and fluorescence imaging was captured with a digital microscope (Nikon Eclipse TE2000-U).
M1 and M2 polarized differentiation. Raw 264.7 cells (Passage 8 from the cell core of center for Systems Biology at Massachusetts General Hospital, Boston) in 10 mL petri dishes were cultured with Dulbecco's modified eagle medium with high glucose (DMEM, Thermo Fisher Scientific, NY, USA) containing 10% of fetal bovine serum (FBS, Sigma-Aldrich, MO, USA) and 0.5% streptomycin/penicillin (Cellgro) until reaching 80% of confluency. Then differentiating media containing IFN-gamma (100 ng/ml the above medium) for M1 polarization and IL-4 (100 ng/mL) for M2 polarization were added to the dishes, respectively. After 24 h, the M1 and M2 polarized macrophages were ready for the following experiments.

[2] = blood half-life by ICP-MS; type: in vivo, mouse; conditions: two-phase exponential model
Description: (§1) 6-10 weeks old of C57BL/6J mice were administered with MannGdFish intravenously 24 h after the wound injury. At 3 h and on day 7 after induction, mice were sacrificed and major organs including wound skins and the counter skins were harvested (n=3 for each time point). Blood samples were collected before and at different time points after the administration of MannGdFish (n=6) and centrifuged to obtain the plasma. The samples were weighed, treated with nitric acid, and subjected to inductively coupled plasma mass spectrometry (ICP-MS) to determine the amount of gadolinium as described in Example 6.

[3] = biodistribution and retention by ICP-MS in mice with cutaneous wound; type: in vivo, mouse
Description: as §1

RAW 264.7 cells = experiment: cytotoxicity, MTT assay; type: cell-based; conditions: n=3
Description: The cytotoxicity of MannGdFish was evaluated using RAW264.7 cells (Passage 8 from the cell core of the Center for Systems Biology at Massachusetts General Hospital, Boston) with an MTT assay as described by Wang et. al (J Med Chem 64, 5874-5885 (2021)) (n=3).

[4] = in vitro relaxivity (r1), Bruker Minispect; type: physicochemical
Description: Relaxation time (T1) of Mann2-DTPA-Gd/MannGdFish at concentrations of 0.1, 0.2, 0.3, 0.5, 0.6, 0.75, and 1 mM in PBS was measured on the Bruker Minispect (Bruker Analytics, MA) at 0.47 T (20 MHz) at 40° C. The slope value of the linear function of 1/T1 (s) to their corresponding concentrations is defined as the relaxivity (n=3 for each concentration).

[5] = PET imaging of [68]Ga-MannGaFish; conditions: in vivo

Structure (SMILES): O=C([O-])CN1CCN(CC(=O)[O-])CCN(CC(=O)O)CCN(CC(=O)[O-])CC1.[Gd+3] [DOTA-Gd, reference compound]
contrast-to-noise ratio (CNR) time course (CD206+ macrophages): decreased significantly 15 min post-injection; also recorded: decreased rapidly after peaking at 15 min post-injection

Structure (SMILES): CC[N+]1=C(/C=C/C=C/C=C2/N(CCCCCC(=O)NC3C(O)OC(CO)C(O)C3O)c3ccc(S(=O)(=O)O)cc3C2(C)C)C(C)(C)c2cc(S(=O)(=O)[O-])ccc21 (stereo not drawn) [MR1-cy5]
fluorescence signal, M2 versus M1 macrophages (specificity) [1]: low specificity to M2 macrophages

Structure (SMILES): CC[N+]1=C(/C=C/C=C/C=C2/N(CCCCCC(=O)NC(COC3OC(CO)C(O)C(O)C3O)COC3OC(CO)C(O)C(O)C3O)c3ccc(S(=O)(=O)O)cc3C2(C)C)C(C)(C)c2cc(S(=O)(=O)[O-])ccc21 (stereo not drawn) [MR2-cy5]
fluorescence signal, M2 versus M1 macrophages (specificity) [1]: much higher signal from M2 macrophages than that from M1 macrophages; also recorded: much higher signal in M2 macrophages compared to that in M1 macrophages

blood half-life, fast phase [2]: 0.3 min | blood half-life, slow phase [2]: 6.1 min | accumulation or retention of Gd in the body ([3]; 3 h and day 7, ICP-MS): < 0.5 nmol Gd per gram tissue | relaxivity (r1) [4]: 5.2 mmol⁻¹ s⁻¹
Structure (SMILES): O=C([O-])CN1CCN(CC(=O)[O-])CCN(C(CCC(=O)NC(COC2OC(CO)C(O)C(O)C2O)COC2OC(CO)C(O)C(O)C2O)C(=O)[O-])CCN(CC(=O)O)CC1.[Gd+3] (stereo not drawn) [MannGdFish]
MR signal compared to DOTA-Gd (CD206+ macrophages; 60 min, wound healing day 7): much higher in comparison with that of DOTA-Gd; also recorded: much higher compared to that of DOTA-Gd | contrast-to-noise ratio (CNR) time course (CD206+ macrophages): slow decrease of CNR | CNR compared to Mann2-DTPA-Gd (CD206+ macrophages; wildtype wound healing mice, day 7): slightly higher CNRs and similar dynamic profile as that of Mann2-DTPA-Gd; also recorded: slightly higher compared to that of Mann2-DTPA-Gd | gadolinium in wound versus normal skin ([3]; 3 h after administration, wound 24 h post-injury): low and not significantly different compared to that in the normal skin | major organs containing gadolinium ([3]; 3 h and day 7): liver and spleen being the major organs containing gadolinium | gadolinium in wound versus normal skin ([3]; day 7): higher in the wound than that in the normal skin | cytotoxicity: concentration up to which no cytotoxic effect was observed (RAW 264.7 cells): > 5 mM

uptake in organs on PET imaging [5]: low uptakes in the lungs and heart
Structure (SMILES): O=C([O-])CN1CCN(CC(=O)[O-])CCN(C(CCC(=O)NC(COC2OC(CO)C(O)C(O)C2O)COC2OC(CO)C(O)C(O)C2O)C(=O)[O-])CCN(CC(=O)O)CC1.[68Ga+3] (stereo not drawn) [[68]Ga-MannGaFish]
